The results in this text go back to patent US9999611B2, “SIRT 1 activator including syringaresinol” (AMOREPACIFIC CORPORATION, priority 2011, dated 2018).

One assay deals with Human hepatocytes. Description: Fatty acid oxidation promoting ability (3H2O in medium), hepatocytes. It is filed as cell-based. As to conditions: 50 μM, vs non-treated group, FIG. 11. As for the experimental part: Human adipocytes, hepatocytes and myocytes were treated with 50 μM syringaresinol in substantially the same manner as in Test Example 3. The cells were washed with PBS and cultured for a day in a medium for fatty acid oxidation analysis. The medium was recovered and the amount of ^3H2O was measured.

Another assay concerns PGC-1β. Description: PGC-1β mRNA expression promoting effect (qRT-PCR). It is filed as cell-based, human. The conditions noted are these: 50 μM, vs DMSO control, FIG. 13. As for the experimental part:
Human adipocytes, hepatocytes and myocytes were treated with 50 μM syringaresinol in substantially the same manner as in Test Example 3 and washed with PBS. Then, RNA and cDNA were sequentially extracted therefrom. The mRNA expression of the energy metabolism-related genes PGC-1α and PGC-1β was analyzed by qRT-PCR. A result of comparing the expression of PGC-1α and PGC-1β with a control group treated only with DMSO is shown in FIG. 12 and FIG. 13, respectively.
For orientation: In qPCR the cycle at which signal appears reflects the starting amount.

In the next assay the test system is SIRT1. The assay is described as follows: SIRT1 expression promoting effect in aged human retinal epithelial cells (western blotting). It is filed as cell-based. As to conditions: aged ARPE-19 cells (5 PDL to 15 PDL), FIG. 14. As for the experimental part: The SIRT1 gene expression promoting effect of syringaresinol in aged human retinal epithelial cells was evaluated as follows. Human retinal […] cell line ARPE-19 was purchased from ATCC (Manassa, Va., USA) and cultured in a 5% CO2 incubator using DMEM (Gibco BRL, Grand Island, N.Y., USA) containing 10% bovine serum, 1% penicillin/streptomycin, amphotericin B and an antifungal agent until 70% confluency. […] The population doubling level (PDL) was calculated according to the following equation for each generation until the cell growth was stopped. The PDL value is higher in aged cells. PDL=(Log10Y−Log10X)/Log102 Y: number of cells at the end of the generation X: number of cells at the beginning of the generation 5 PDL cells were treated with syringaresinol dissolved in DMSO at a concentration of 50 or 100 μM every other day while inducing aging to 15 PDL cells. The cells of a negative control were treated with DMSO corresponding to 1/1000 of the volume of the culture medium. […] The isolated protein was quantitated using the BCA assay kit (Pierce, Rockford, USA) and 30 μg was subjected to western blotting using the iBlot Dry blotting system (Invitrogen, Carlsbad, Calif., USA). The SIRT1 protein expression level was measured using anti-SIRT1 antibody (Santa Cruz Biotechnology, Santa Cruz, Calif., USA).

Assay [1] concerns IL-1b, IL-6. iNOS, COX2, MMP9 and CCR2. The assay is described as follows: Inhibition of expression of inflammation-related genes in LPS-treated human PBMCs. It is filed as cell-based. The conditions noted are these: human PBMCs pretreated with 50 μM, then 10 ng/mL LPS; compared to cells treated only with LPS; FIG. 19. As for the experimental part:
After pretreating human PBMCs with 50 μM syringaresinol, inflammatory response was induced by treating with 10 ng/mL LPS, in substantially the same manner as in Test Example 11. The cells treated with each sample were washed with PBS and RNA and cDNA were extracted and synthesized therefrom. Then, the expression pattern of the inflammatory response-related genes IL-1b, IL-6. iNOS, COX2, MMP9 and CCR2 was monitored using the synthesized cDNA and predesigned primers.

For another assay, the system named is ADD1/SREBP1c, ACC, FAS. Description: Expression of fatty acid synthesis-related genes (qRT-PCR). Format: cell-based, human. As to conditions: 50 μM, vs DMSO control. On the procedure:
Human adipocytes, hepatocytes and myocytes were treated with 50 μM syringaresinol and washed with PBS in substantially the same manner as in Test Example 3. RNA was extracted from the cells and cDNA was synthesized therefrom. The change in expression pattern of fatty acid synthesis-related genes such as ADD1/SREBP1c, ACC, FAS, etc. and fatty acid oxidation-related genes such as ACO, CPT1, mCAD, etc. was measured by qRT-PCR.

Assay [2] has as its system aged retinal cells (ARPE-19). Description: Mitochondrial function recovering effect in aged retinal cells: energy (ATP) production. Format: cell-based, human. The conditions noted are these: compared to cells treated only with DMSO, FIG. 16. As for the experimental part:
The aging of retinal cells was induced while treating with 50 or 100 μM syringaresinol or with DMSO as a negative control, in substantially the same manner as in Test Example 7. For evaluation of mitochondrial function recovering effect, the level of energy (ATP) and reactive oxygen species production in retinal cells was investigated. The energy production was determined by recovering the aged cells after washing with PBS and then with hot water and measuring luminescence using the ATP determination kit (Molecular Probes, Eugene, Oreg., USA) and the Tecan system (Infinite M200, Tecan, Austria). The reactive oxygen species production was measured using a flow cytometer (BD Biosciences, San Jose, Calif., USA) after washing the aged cells with PBS and staining them with the reactive oxygen species detection reagent (H2DCFDA, Invitrogen, Carlsbad, Calif., USA).

As to `COc1cc(C2OCC3C(c4cc(OC)c(O)c(OC)c4)OCC23)cc(OC)c1O` (stereo not drawn) [syringaresinol], the fatty acid oxidation result in the assay with Human hepatocytes is reported as “increased fatty acid oxidation”. In addition, the “expression of PGC-1β” value in the assay with PGC-1β (human adipocytes), with PGC-1β (human hepatocytes) and in the assay on PGC-1β (human myocytes) was “increased the expression” throughout. Also, the SIRT1 protein expression result with SIRT1 (100 μM every other day) is listed as “increased SIRT1 expression to a level comparable to that of young retinal epithelial cells”; in the assay with SIRT1 (50 or 100 μM every other day), “increased SIRT1 expression, which had been decreased in aged retinal cells, in a concentration-dependent manner”. The “decreased expression of the inflammatory response-related genes” value in assay [1] is “about 90%”. In addition, the “expression of fatty acid synthesis-inducing genes” value with ADD1/SREBP1c, ACC, FAS (human adipocytes, FIG. 5) was “suppressed the expression of fatty acid synthesis-inducing genes”; with ADD1/SREBP1c, ACC, FAS (human hepatocytes, FIG. 6), “suppressed the expression of fatty acid synthesis-inducing genes”; in the assay with ADD1/SREBP1c, ACC, FAS (human myocytes, FIG. 7) it was “suppressed the expression of fatty acid synthesis-inducing genes”. Further, the “increased energy (ATP) production” value in assay [2] (50 μM) is “about 21%”; in assay [2] (100 μM), around 33%.
